Experimental data: patent publication US20040192617A1, “Process for preparing phenolic acid salts of gabapentin” (priority 2003, published 2004)
Where two headings read alike, the source gives them in different places.

Tests used:
[1] = Solubility of the tannate salt, seen as precipitation from the reaction solution; format: physicochemical; details: water/ethanol mixture, room temperature; salt precipitates from solution
Procedure: The completeness of the reaction and the formation of the tannate salt were followed by taking samples at different stages of the conversion process. Due to the large size of the tannate salt, it usually precipitates from solution upon formation. The absence or loss of gabapentin from solution is correlated with the formation of the tannate salt.
The conversion process used in this example to synthesize the tannate salt of gabapentin is done at room temperature as follows: 250 ml of purified water and 50 ml of ethanol are placed in a beaker. While mixing the water/ethanol mixture, tannic acid is added and mixing is continued to form a solution. While mixing the tannic acid solution, gabapentin powder is added slowly. The gabapentin reacts with the tannic acid to form the tannate salt. […] The ratio of tannic acid to gabapentin used is 0.8:1.

[2] = in water and across a wide range of pH; cited from earlier work

Row | Compound | solubility [1] | solubility [2]
1 | gabapentin tannate | low solubility | 
2 | NCC1(CC(=O)O)CCCCC1 [Gabapentin, 1-(aminomethyl) cyclohexaneacetic acid] |  | freely soluble
